Data set [1] relates to partial sciatic nerve ligation model in rats. Nature of the data set: Analgesic effect in a Seltzer model, Evaluation (2): mechanical hyperalgesia, analgesy meter paw pressure test. The format is in vivo. The settings on record: rat, oral administration, 10 mg/kg, at 3 hours. An excerpt:
Rats were anaesthetized using isoflurane/O2 inhalation anaesthesia. After induction of anesthesia, the left thigh was shaved. An incision was made in the skin just below the hip bone. The muscle was bluntly dissected to expose the sciatic nerve. One third (⅓) to one half (½) of the sciatic nerve thickness was tightly ligated and the wound was closed. The right thigh is used as a sham-operated control. The right thigh undergoes an identical procedure with the left hind limb, however, the sciatic nerve is not manipulated or ligated.
Mechanical hyperalgesia was eavaluated using an analgesy meter. Two weeks after nerve ligation, the paw pressure test was performed using an analgesy meter (stimulus pressure increased 16 g per second) to obtain paw withdrawal thresholds (PWT). Measurements were made on both sides of the hind paw and to obtain pre-dose PWT. The rats showing the threshold change from 60 to 90 g (in nerve ligated side) and 100 to 175 g (in sham operated side) were used in the experiments. On the day before the experiment, the rats have their hind paws set on the apparatus to familiarize them with the test procedure. […] Post-dose PWT of the right and left hind paws were measured at approximately 1 to 5 hours after drug administration. Percent reversal of mechanical hyperalgesia for each rat was calculated using the following formula. […]

The subject of a further data set is rat model of cystitis. Put plainly: Evaluation of the urinary function in a rat model of cystitis (acetic acid infusion, cystometry). It counts as in vivo. The settings on record: oral administration of 30 mg/kg. The source says:
A rat was fixed in the supine position after being given anesthesia through the inhalation of 2% isoflurane (Anesthetic background: Nitrous oxide: Oxygen=7:3). A midline incision was made in its abdomen to expose the bladder. A cannula (made by) processing a polyethylene tube (PE-50: Becton Dickinson)) was inserted through a small incision on top of the bladder and fixed to create a bladder fistula. The other end of the cannula was led through the hypodermal tissue to the back, and the muscular coat and skin were sutured. The cannula, which was led to the back, was protected with a stainless spring in the middle and connected to the cannula swivel. […]
Three days after the acetic acid infusion, the other end of the cannula inserted into the bladder was connected to a T shape stopcock and then the intravesical pressure was recorded continuously using a pressure amplifier while infusing warmed normal saline solution at a rate of 3.0 mL/hr from one side and through a pressure transducer on the other side. The baseline of the intravesical pressure was measured (for approximately 40 minutes) after a measurement for stable duration (for approximately 20 minutes). After that, a vehicle, positive control compound or test compound wore administered, and the value after administration was measured for approximately 120 minutes. […]

The subject of another data set is serum. Nature of the data set: Protein binding test (equilibrium dialysis, serum). It counts as in vitro ADME. The conditions noted are these: 37° C., 24 hours, 2 μg/mL. The protocol: The unbound fraction the present compound in serum was measured using serum of various species.
The reactive conditions are as follows: Evaluation method, Equilibrium dialysis; Reaction time, 24 hours; Reaction temperature, 37° C.; Concentration of the present compound, 2 μg/mL.
The test solution was added to each serum and the mixture was agitated to prepare the serum samples at the concentration mentioned above. Each serum sample was added into one side or the cell and phosphate buffered saline (PBS) was added into the other side to perform equilibrium dialysis at 37° C. for 24 hours. Then, the concentration of the compounds in the samples that were obtained from both sides was measured by LC/MS/MS.
(Result) The ratio of PBS concentration to serum concentration is expressed as unbound fraction.

In another data set the target is human P2X3 receptor (Homo sapiens (Human), UniProt P56373). Put plainly: Evaluation of human P2X3 receptor inhibitory activity (Fluo-3 calcium fluorescence, FDSS 3000, ATP stimulation).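 Also: stimulus was 50 nM ATP with fluorescence followed for 3 min, and the response per well was peak post-ATP fluorescence divided by the reading at measurement start.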 The conditions noted are these: C6BU-1 cells stably expressing human P2X3 receptor. It counts as cell-based.
The nature of data set [2]: Bioavailability (BA) test. The format is in vivo. The conditions noted are these: plasma; mice or SD rats, oral vs intravenous AUC. How it is done: (1) Animals: Mice or SD rats were used
(2) Breeding conditions: Mice or SD rats were allowed to freely take solid food and sterilized tap water.
(3) Dose and grouping: orally or intravenously administered at a predetermined dose; grouping was as follows (Dose depends one the compound) • Oral administration: 0.3 to 30 mg/kg (n=2 to 3) • Intravenous administration: 0.5 to 10 mg/kg (n=2 to 3)
(4) Preparation of dosing solution: for oral administration, in a solution or a suspension state: for intravenous administration, in a solubilized state
(5) Administration method: in oral administration, forcedly administer into ventriculus with oral probe; in intravenous administration, administer from caudal vein with a needle-equipped syringe
(6) Evaluation items: blood was collected over time, and the plasma concentration of drug was measured by LC/MS/MS
(7) Statistical analysis: regarding the transition of the plasma concentration or the present compound, the area under the plasma concentration-time curve (AUC) was calculated by non-linear least squares program WinNonlin (Registered trade name), and the bioavailability (BA) was calculated the AUCs of the oral administration group and intravenous administration group

The next data set addresses CYP2C19 (Homo sapiens (Human), UniProt P33261). Nature of the data set: CYP inhibition test, pooled human hepatic microsome, mephenytoin 4'-hydroxylation. The settings on record: substrate S-mephenitoin. The format is in vitro ADME. The protocol: (§1) Using commercially available pooled human hepatic microsome, and employlng, as markers, 7-ethoxyresorufin O-deethylation (CYP1A2), tolbutamide methyl-hydroxylation (CYP2C9), mephenyloin 4′-hydroxylation (CYP2C19), dextromethorphan O-demethylation (CYP2D6), and terfenedine hydroxylation as typical substrate metabolism reactions of human main five CYP enzyme forms (CYP1A2, 2C9, 2C19, 2D6, 3A4), an inhibitory degree of each metabolite production amount by a test compound was assessed.
(§2) The reaction conditions were as follows: substrate, 0.5 μmol/L ethoxyresorufin (CYP1A2), 100 μmol/L tolbutamide (CYP2C9), 50 μmol/L S-mephenitoin (CYP2C19), 5 μmol/L dextromethorphan (CYP2D6), 1 μmol/L terfenedine (CYP3A4) reaction time, 15 minutes; reaction temperature, 37° C; enzyme, pooled human hepatic microsome 0.2 mg protein/mL; test drug concentration, 1.0, 5.0, 10, 20 μmol/L (four points).
(§3) Each five kinds of substrates, human hepatic microsome, or a test drug in 50 mmol/L Hepes buffer as a reaction solution was added to a 96-well plate at the composition as described above, NADPH, as a cofactor was added to initiate metabolism reactions as markers and, after the incubation at 37° C. for 15 minutes, a methanol/acetonitrile=1/1 (v/v) solution was added to stop the reaction. After the centrifugation at 3000 rpm for 15 minutes, resorufin (CYP1A2 metabolite) in the supernatant was quantified by a fluorescent multilabel counter and tributamide hydroxide (CYP2CP metabolite), mephenyloin 4′ hydroxide (CYP2C19 metabolite), […] (CYP2D6 metabolite), and terfenadine alcohol (CYP3A4 metabolite) were quantified by LC/MS/MS.

The target in the next data set is CYP3A4 (Homo sapiens (Human), UniProt P08684). Nature of the data set: CYP inhibition test, pooled human hepatic microsome, terfenedine hydroxylation. The settings on record: substrate terfenedine. It counts as in vitro ADME. The protocol:
as §1, §2, §3

Another data set concerns the target CYP1A2 (Homo sapiens (Human), UniProt P05177). Nature of the data set: CYP inhibition test, pooled human hepatic microsome, 7-ethoxyresorufin O-deethylation. The format is in vitro ADME. The conditions noted are these: substrate ethoxyresorufin. The protocol: as §1, §2, §3
In the next data set the target is CYP2D6 (Homo sapiens (Human), UniProt P10635). Put plainly: CYP inhibition test, pooled human hepatic microsome, dextromethorphan O-demethylation. It counts as in vitro ADME. The settings on record: substrate dextromethorphan. How it is done:
as §1, §2, §3

The target of the next data set is CYP2C9 (Homo sapiens (Human), UniProt P11712). Put plainly: CYP inhibition test, pooled human hepatic microsome, tolbutamide methyl-hydroxylation. The format is in vitro ADME. The settings on record: substrate tolbutamide. The protocol:
as §1, §2, §3

Chain of CYP2D6 (P10635 whole entry): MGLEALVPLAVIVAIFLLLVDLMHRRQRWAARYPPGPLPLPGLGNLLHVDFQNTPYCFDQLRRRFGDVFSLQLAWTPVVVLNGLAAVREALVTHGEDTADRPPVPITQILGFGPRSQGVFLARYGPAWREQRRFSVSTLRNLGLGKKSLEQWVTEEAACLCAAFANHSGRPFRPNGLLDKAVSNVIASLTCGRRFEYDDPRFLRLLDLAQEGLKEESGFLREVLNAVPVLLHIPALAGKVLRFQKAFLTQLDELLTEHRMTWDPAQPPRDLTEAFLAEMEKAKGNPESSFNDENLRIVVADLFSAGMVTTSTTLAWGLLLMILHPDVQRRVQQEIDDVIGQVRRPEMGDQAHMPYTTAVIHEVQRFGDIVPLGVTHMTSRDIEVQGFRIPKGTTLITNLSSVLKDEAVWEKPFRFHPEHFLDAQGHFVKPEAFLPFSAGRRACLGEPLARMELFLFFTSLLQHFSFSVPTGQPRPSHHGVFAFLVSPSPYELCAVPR
Chain of CYP2C19 (P33261 whole entry): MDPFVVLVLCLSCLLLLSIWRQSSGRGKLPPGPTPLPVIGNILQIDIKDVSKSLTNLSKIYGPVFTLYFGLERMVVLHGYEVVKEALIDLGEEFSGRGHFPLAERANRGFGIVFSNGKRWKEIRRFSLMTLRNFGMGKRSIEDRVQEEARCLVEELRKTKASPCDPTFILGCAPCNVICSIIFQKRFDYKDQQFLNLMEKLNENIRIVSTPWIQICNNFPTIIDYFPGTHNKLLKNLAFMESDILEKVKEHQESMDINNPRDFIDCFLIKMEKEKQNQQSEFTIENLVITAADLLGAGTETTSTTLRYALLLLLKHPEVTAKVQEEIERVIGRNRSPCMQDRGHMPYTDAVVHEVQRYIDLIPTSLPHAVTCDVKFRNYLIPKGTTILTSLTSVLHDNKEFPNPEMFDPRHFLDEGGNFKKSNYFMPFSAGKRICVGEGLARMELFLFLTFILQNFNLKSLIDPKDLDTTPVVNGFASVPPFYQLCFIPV
Chain of human P2X3 receptor (P56373 whole entry): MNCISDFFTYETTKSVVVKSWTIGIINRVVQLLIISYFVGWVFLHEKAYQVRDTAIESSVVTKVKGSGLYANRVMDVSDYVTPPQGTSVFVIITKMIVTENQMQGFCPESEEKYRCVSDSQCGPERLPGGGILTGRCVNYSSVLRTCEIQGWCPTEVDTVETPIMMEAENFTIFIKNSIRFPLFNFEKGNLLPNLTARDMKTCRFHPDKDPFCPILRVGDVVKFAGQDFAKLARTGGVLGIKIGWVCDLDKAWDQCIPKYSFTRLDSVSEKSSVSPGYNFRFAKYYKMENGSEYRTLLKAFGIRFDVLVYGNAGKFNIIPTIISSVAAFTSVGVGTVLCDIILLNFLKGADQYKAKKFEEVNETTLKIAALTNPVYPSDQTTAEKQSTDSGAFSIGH
Chain of CYP3A4 (P08684 whole entry): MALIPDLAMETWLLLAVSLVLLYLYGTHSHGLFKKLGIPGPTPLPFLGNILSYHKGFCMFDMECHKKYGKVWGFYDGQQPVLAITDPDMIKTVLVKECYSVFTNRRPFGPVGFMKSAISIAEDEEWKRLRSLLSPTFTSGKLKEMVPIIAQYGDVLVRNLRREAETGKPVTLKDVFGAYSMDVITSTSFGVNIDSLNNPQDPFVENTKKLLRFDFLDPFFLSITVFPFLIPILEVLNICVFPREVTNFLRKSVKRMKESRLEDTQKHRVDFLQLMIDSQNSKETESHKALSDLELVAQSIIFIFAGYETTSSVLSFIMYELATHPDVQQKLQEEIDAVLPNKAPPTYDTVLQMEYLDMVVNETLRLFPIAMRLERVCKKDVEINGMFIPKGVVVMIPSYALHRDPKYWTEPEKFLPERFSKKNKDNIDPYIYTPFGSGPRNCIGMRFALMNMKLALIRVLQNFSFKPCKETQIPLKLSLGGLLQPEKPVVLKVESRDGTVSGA
Chain of CYP2C9 (P11712 whole entry): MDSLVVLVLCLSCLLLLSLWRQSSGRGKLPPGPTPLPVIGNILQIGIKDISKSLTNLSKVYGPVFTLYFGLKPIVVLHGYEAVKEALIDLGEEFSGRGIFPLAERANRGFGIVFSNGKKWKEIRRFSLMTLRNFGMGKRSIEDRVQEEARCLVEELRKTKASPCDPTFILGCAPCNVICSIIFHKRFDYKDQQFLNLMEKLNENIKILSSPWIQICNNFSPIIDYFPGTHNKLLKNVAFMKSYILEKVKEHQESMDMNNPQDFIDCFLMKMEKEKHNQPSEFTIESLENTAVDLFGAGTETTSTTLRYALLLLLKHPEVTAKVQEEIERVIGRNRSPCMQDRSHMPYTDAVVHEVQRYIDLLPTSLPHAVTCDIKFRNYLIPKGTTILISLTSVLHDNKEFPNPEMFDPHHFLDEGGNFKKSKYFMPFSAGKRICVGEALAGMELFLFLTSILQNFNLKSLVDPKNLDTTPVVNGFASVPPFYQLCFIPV
Chain of CYP1A2 (P05177 whole entry): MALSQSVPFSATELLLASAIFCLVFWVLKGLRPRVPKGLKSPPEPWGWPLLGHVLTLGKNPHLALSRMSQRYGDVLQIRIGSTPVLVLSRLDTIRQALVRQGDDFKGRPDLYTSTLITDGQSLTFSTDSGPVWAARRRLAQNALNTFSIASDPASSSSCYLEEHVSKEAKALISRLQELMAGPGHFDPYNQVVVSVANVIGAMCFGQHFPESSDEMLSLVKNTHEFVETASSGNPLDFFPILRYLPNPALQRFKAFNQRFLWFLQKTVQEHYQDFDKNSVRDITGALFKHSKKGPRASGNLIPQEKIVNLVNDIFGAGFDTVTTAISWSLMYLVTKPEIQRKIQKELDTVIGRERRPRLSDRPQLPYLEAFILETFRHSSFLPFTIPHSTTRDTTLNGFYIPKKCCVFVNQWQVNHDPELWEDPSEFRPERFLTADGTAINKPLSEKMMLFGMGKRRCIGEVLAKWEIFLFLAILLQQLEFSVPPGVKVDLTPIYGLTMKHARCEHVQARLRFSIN

As to `CC(C)Oc1ccc(Nc2nc(=O)n(CC(C)(C)C(=O)O)c(=O)n2Cc2ccc(Cl)cc2)cc1F` [Compound I-0364], the “analgesic effect, percent reversal of mechanical hyperalgesia” value in data set [1] is 56.7 % reversal. In addition, in the data set with rat model of cystitis, the “improvements in the urinary function in the voided volume per urination” value is 88% and the “improvements in the urinary function in the voiding interval” value is listed as 74.8%.
As for `CNC(=O)c1cc(Oc2ccc(/N=c3\[nH]c(=O)n(C)c(=O)n3Cc3ccc(Cl)cc3)cc2)ccn1` [Compound I-2011], in the data set on serum, the “unbound fraction (ratio of PBS concentration to serum concentration)” value is given as 0.5%. Further, the IC50 at human P2X3 receptor was 0.01 µM.
With `COC(=O)[C@@H](C)Cn1c(=O)[nH]/c(=N\c2cccc(C3C=CCCC3)c2)n(Cc2ccc(C)cc2)c1=O` (some centres unmarked) [Compound I-1079], the bioavailability in data set [2] was over 99.9%. The IC50 against CYP2C19, against CYP3A4, against CYP1A2, at CYP2D6 and against CYP2C9 was over 20 µM throughout.

The record behind these values is patent US9718790B2, “Triazine derivative and pharmaceutical composition having an analgesic activity comprising the same” (SHIONOGI & CO., LTD., priority 2010, dated 2017).
